According to article PMC11607671, “Antiviral activity of cathelicidins against porcine epidemic diarrhea virus (PEDV): Mechanisms, and efficacy” (Virus Research, 2024):

Key:
PEDV-GFP [1] = experiment: Co-incubation antiviral assay, PEDV-GFP MOI=0.3, Vero cells (fluorescence microscopy and flow cytometry); assay type: cell-based, Porcine epidemic diarrhea virus
Experimental: (§1) In order to determine the effect of AMPs on the infectivity of PEDV, Vero cells (5 × 10^5 per well) were seeded in 12-well plates and cultured overnight at 37 °C, 5% CO2. In a co-incubation of virus and AMPs experiments (Fig. 2A), the mixture of AMPs (0–10 µM) and PEDV-GFP (MOI= 0.3) in a 1 mL volume of DMEM (P/S + 10% FCS) was added to the cells and incubated at 37 °C. After 2 h, the supernatant was replaced with fresh DMEM (P/S + 10% FCS) and incubated for 24 h. Subsequently, the cells were washed 2 times with flow cytometry buffer (500 mL PBS+ 10 mL FCS+ 250 µL of 10% NaN3) and were imaged with an EVOS M5000 Imaging System for semi-quantitative determination of infectivity. Eventually, cells were carefully detached by 2.5% trypsin, stained with ViaKrome 808 fixable viability dye (1:1000), and incubated for 30 min at 4 °C. Following washing, the cells were fixed using 50 µL of 4% PFA for 10 min, and a minimum of 1 × 10^5 cells were acquired using the CytoFLEX LX Flow Cytometer (FC)(Beckman Coulter, USA). Data was analyzed using FlowJo software v.10.6 (Flowjo LCC, Ashland, OR, USA).
Fig. 2 Effect of AMPs on the infectivity of PEDV (MOI=0.3). A) Experimental set-up of the ‘co-incubation assay’; Vero cells were subjected to 2 h exposure to a combination of AMPs and PEDV-GFP. Afterward, the supernatant was replaced, and the cells were incubated for an additional 24 h B) Fluorescent microscopy (20 × magnification) was performed to visualize the fluorescence signal of GFP in the presence of 1, 5, and 10 µM AMPs. The cell-only sample consists exclusively of cells while the no-peptide sample contains only PEDV-GFP, with no peptides present.
Fig. 3 Antiviral activity of AMPs as determined by flow cytometry (FC). A) The percentage of GFP-positive cells following a 2 h incubation with a combination of PEDV and AMPs. […] The values reported here depict the average ± SD derived from three independent experiments performed in duplicate. * p < 0.05; ** p < 0.01.

Vero cells = experiment: LDH release cytotoxicity assay; assay type: cell-based, African green monkey; details: 0-10 µM AMPs in DMEM, 3 h and 24 h, LDH release relative to 1% Triton X-100 lysis, three independent experiments, Fig. 1A+B
Experimental: Vero-mCeacam cells (Vero cells), derived from African green monkey kidney cells, were maintained in DMEM (Gibco, Thermo Fisher Scientific, Waltham, MA) supplemented with 10% FCS (Bodinco B.V., Alkmaar, The Netherlands) and 200 units/mL penicillin, and […] (P/S) (Gibco, Life Technologies Limited, Paisley, UK) at 37 °C and 5% CO2.
To assess the cytotoxicity of peptides, Vero cells were treated with AMPs (0 − 10 μM in DMEM) as outlined in paragraph 2.5. After 3 and 24 h of stimulation, the fraction of lactate dehydrogenase (LDH) released into the culture supernatant was measured using the Cyto Tox 96 nonradioactive cytotoxicity kit (Promega GmbH, Walldorf, Germany) according to the manufacturer's instructions, and expressed as a percentage of the maximum LDH release from cells, lysed by 1% Triton X-100 (Sigma-Aldrich, T8787, Darmstadt, Germany).
Fig. 1 The cytotoxicity of AMPs on Vero cells. Cells were incubated with 0 – 10 µM AMPs for either 3 h or 24 h A and B) LDH release assay, indicating cell membrane permeability after 3 and 24 h, respectively. C and D) WST assay, measuring cell metabolic activity after 3 and 24 h, respectively. ‘No peptide‘ represents cells incubated with only growth medium for the indicated times, serving as a control. P.C in the LDH assay are cells that have been lysed by the lysis buffer representing 100% release of intracellular LDH. […]

PEDV-GFP [2] = experiment: Co-incubation antiviral assay of the extended AMP panel and of FL LL-37; assay type: cell-based, Porcine epidemic diarrhea virus; details: co-incubation with PEDV-GFP, 1 and 5 µM, 3 h, FC; two independent experiments in duplicate; Fig. 5
Experimental: as §1
This extended panel of AMPs encompassed chicken-derived peptides (D-CATH-2, l-CATH-2), mouse-derived peptide (CRAMP), horse-derived peptides (eCATH-1, eCATH-3), parrot-derived peptides (ER2, ER3, AG3), and synthetic peptides (CR165, CR174), all of which were readily accessible within our laboratory. As previously described, these AMPs were co-incubated with PEDV.
Fig. 5 Antiviral effects of a diverse group of AMPs on PEDV infection. Vero cells were incubated for 3 h with a combination of PEDV-GFP and AMPs, as described previously. FC was utilized to assess the inhibitory impact of AMPs.
Figure S4. The antiviral activity of FL LL-37 (fluorogenic LL-37 ) and unlabeled LL-37. Peptides were co-incubated at 1 and 5 µM with PEDV and added to Vero cells for 3 h, followed by FC analysis to examine the infectivity.

PEDV = experiment: Peptide-virus interaction assay with Capto Core 700 beads; assay type: cell-based, Porcine epidemic diarrhea virus; details: Fig. 8
Experimental: In order to determine if CATH-B1 and LL-37 physically interact with PEDV, Capto Core 700 beads (GE Healthcare Life Sciences, Chicago, IL, USA) were used to selectively eliminate unbound AMPs. PEDV were pre-incubated with or without CATH-B1/LL-37 in Opti-MEM medium, and Capto Core 700 beads were added, followed by a 1 h incubation at 4 °C while slowly rotating. After centrifugation, supernatants were collected and applied to the cells. To make sure the AMP was removed effectively, we tested samples with peptides but no virus using the same process. The collected supernatants were used to inoculate cells, and the number of infected cells was determined using the described method.
Fig. 8 Interactions between CATH-B1 and LL-37 with PEDV. CATH-B1/LL-37 were pre-incubated with the virus, and subsequently, the peptide and virus were separated using Capto Core beads. The supernatant containing the separated virus was then employed to infect Vero cells. […] The data is presented as the mean ± SEM of three independent experiments in duplicate, each with triplicate samples. **** p < 0.0001.

Sequence: LLGDFFRKSKEKIGKEFKRIVQRIKDFLRNLVPRTES [LL-37, human cathelicidin antimicrobial peptide, 37 residues]
- percentage of GFP-positive cells (FC), co-incubation (PEDV-GFP [1]; 10 µM peptide, PEDV-GFP MOI=0.3, 2 h co-incubation then 24 h, no-peptide control approximately 35%, three independent experiments in duplicate, Fig. 3A): 1–2%
- infected cells by fluorescent microscopy, co-incubation (PEDV-GFP [1]; PEDV-GFP MOI=0.3, 5 and 10 µM peptide, 2 h co-incubation then 24 h, compared to control without peptide, Fig. 2B): reduced numbers of infected cells
- cytotoxicity (LDH release) (Vero cells): no toxic effects
- prevention of PEDV-GFP entry into Vero cells, extended AMP panel, in words (PEDV-GFP [2]): strong antiviral activity
- virus infectivity, peptide pre-incubated with beads before PEDV introduction (PEDV; Capto Core 700 beads, Vero cells): minimal effects on virus infectivity
- virus infectivity, peptide incubated with PEDV without beads (PEDV; no Capto Core 700 beads, Vero cells): a decrease in virus infectivity
- antiviral activity when peptide is combined with virus and beads (PEDV; peptide + PEDV, then Capto Core 700 beads 1 h at 4 °C, supernatant applied to Vero cells): lost its inhibitory effect
